Measured values reported in US8802597B2, “Herbicidal pyrimidines” (E I du Pont de Nemours and Company, priority 2003, dated 2014).

What was measured:
Type in all cases: in vivo
rice (Oryza sativa) = assay: Test B flooded paddy test; settings: Flood, 1000 g ai/ha; scale 0 to 100
In short: (§1)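 Visual injury scoring (0 = no effect, 100 = complete control) versus controls made 13 to 15 days after treatment in the greenhouse. Test species were grown in flooded paddy to the 2-leaf stage: rice, barnyardgrass, umbrella sedge, duck salad.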

[1] = tested on: barnyardgrass (Echinochloa crus-galli); assay: Test B flooded paddy test; settings: Flood, 1000 g ai/ha; scale 0 (no effect) to 100 (complete control)
In short: as §1

[2] = tested on: duck salad (Heteranthera limosa); assay: Test B flooded paddy test; settings: Flood, 1000 g ai/ha; scale 0 to 100
In short: as §1

[3] = tested on: umbrella sedge (Cyperus difformis); assay: Test B flooded paddy test; settings: Flood, 1000 g ai/ha; scale 0 to 100
In short: as §1

wild oat (Avena fatua) = assay: Test B postemergence; settings: for Oat, Wild plant response rating: scale 0 to 100 (0 no effect, 100 complete control); for Plant response rating, Oat, Wild: 500 g ai/ha, scale 0 to 100
In short: (§2)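 Visual injury scored 0 (no effect) to 100 (complete control) versus untreated controls after 13 to 15 days in greenhouse. Treatments were pre- or postemergence sprays of surfactant-containing solvent formulations; postemergence plants at 1- to 4-leaf stage, 2 to 18 cm.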

[4] = tested on: blackgrass (Alopecurus myosuroides); assay: Test B postemergence; settings: for Blackgrass plant response rating: scale 0 to 100 (0 no effect, 100 complete control); for Plant response rating, Blackgrass: 500 g ai/ha, scale 0 to 100
In short: as §2

[5] = tested on: pigweed (Amaranthus retroflexus); assay: Test B pre/postemergence
In short: as §2

[6] = tested on: wheat (Triticum aestivum); assay: Test B pre/postemergence
In short: as §2

[7] = tested on: giant foxtail (Setaria faberii); assay: Test B pre/postemergence
In short: as §2

[8] = tested on: Surinam grass (Brachiaria decumbens); assay: Test B pre/postemergence
In short: as §2

[9] = tested on: barnyardgrass (Echinochloa crus-galli); assay: Test B pre/postemergence
In short: as §2

[10] = tested on: lambsquarters (Chenopodium album); assay: Test B pre/postemergence
In short: as §2

[11] = tested on: cocklebur (Xanthium strumarium); assay: Test B pre/postemergence
In short: as §2

corn (Zea mays) = assay: Test B pre/postemergence
In short: as §2

[12] = tested on: morningglory (Ipomoea coccinea); assay: Test B pre/postemergence
In short: as §2

[13] = tested on: velvetleaf (Abutilon theophrasti); assay: Test B pre/postemergence
In short: as §2

[14] = tested on: crabgrass (Digitaria sanguinalis); assay: Test B pre/postemergence
In short: as §2

[15] = Postemergence, 62 g ai/ha, scale 0 to 100 (0 no effect, 100 complete control)
[16] = Postemergence, 500 g ai/ha, scale 0 to 100
[17] = Preemergence, 62 g ai/ha, scale 0 to 100, 0 no effect, 100 complete control
[18] = Preemergence, 500 g ai/ha, scale 0 to 100 (0 no effect, 100 complete control)
[19] = Postemergence, 125 g ai/ha, scale 0 to 100 (0 no effect, 100 complete control)
[20] = Preemergence, 125 g ai/ha, scale 0 to 100 (0 no effect, 100 complete control)

CCOC(=O)C(Cl)c1nc(C2CC2)nc(N)c1Br (stereo not drawn) [Compound 31]
Plant response rating, Rice (rice (Oryza sativa)): 20
Plant response rating, Barnyardgrass [1]: 30
Plant response rating, Ducksalad [2]: 60
Plant response rating, Sedge, Umbrella [3]: 0
Oat, Wild plant response rating (wild oat (Avena fatua); 62 g ai/ha): 0
Plant response rating, Oat, Wild (wild oat (Avena fatua)): 0
Blackgrass plant response rating ([4]; 62 g ai/ha): 0
Plant response rating, Blackgrass [4]: 0
Pigweed plant response rating [5, 15]: 20
Plant response rating, Pigweed [5, 16]: 50
Plant response rating, Pigweed [5, 17]: 90
Pigweed plant response rating [5, 18]: 100
Wheat plant response rating [6, 15]: 0
Plant response rating, Wheat [6, 16]: 0
Plant response rating, Wheat [6, 17]: 40
Wheat plant response rating [6, 18]: 70
Foxtail, Giant plant response rating [7, 15]: 0
Plant response rating, Foxtail, Giant [7, 16]: 0
Plant response rating, Foxtail, Giant [7, 17]: 10
Foxtail, Giant plant response rating [7, 18]: 80
Surinam Grass plant response rating [8, 15]: 0
Plant response rating, Surinam Grass [8, 16]: 0
Plant response rating, Surinam Grass [8, 17]: 20
Surinam Grass plant response rating [8, 18]: 60
Barnyardgrass plant response rating [9, 15]: 0
Plant response rating, Barnyardgrass [9, 16]: 0
Plant response rating, Barnyardgrass [9, 17]: 20
Barnyardgrass plant response rating [9, 18]: 70
Lambsquarters plant response rating [10, 15]: 40
Plant response rating, Lambsquarters [10, 16]: 70
Plant response rating, Lambsquarters [10, 17]: 90
Lambsquarters plant response rating [10, 18]: 100
Cocklebur plant response rating [11, 15]: 70
Plant response rating, Cocklebur [11, 16]: 80
Plant response rating, Cocklebur [11, 17]: 90
Cocklebur plant response rating [11, 18]: 100
Corn plant response rating (corn (Zea mays); [15]): 0
Plant response rating, Corn (corn (Zea mays); [16]): 0
Plant response rating, Corn (corn (Zea mays); [17]): 0
Corn plant response rating (corn (Zea mays); [18]): 40
Morningglory plant response rating [12, 15]: 50
Plant response rating, Morningglory [12, 16]: 70
Plant response rating, Morningglory [12, 17]: 90
Morningglory plant response rating [12, 18]: 100
Velvetleaf plant response rating [13, 15]: 10
Plant response rating, Velvetleaf [13, 16]: 60
Plant response rating, Velvetleaf [13, 17]: 80
Velvetleaf plant response rating [13, 18]: 90
Crabgrass plant response rating [14, 15]: 0
Plant response rating, Crabgrass [14, 16]: 30
Plant response rating, Crabgrass [14, 17]: 10
Crabgrass plant response rating [14, 18]: 80

CCOC(=O)Cc1nc(C2CC2)nc(N=CN(C)C)c1Br [Compound 33]
Plant response rating, Rice (rice (Oryza sativa)): 0
Plant response rating, Barnyardgrass [1]: 0
Plant response rating, Ducksalad [2]: 0
Plant response rating, Sedge, Umbrella [3]: 0
Oat, Wild plant response rating (wild oat (Avena fatua); 125 g ai/ha): 20
Plant response rating, Oat, Wild (wild oat (Avena fatua)): 20
Blackgrass plant response rating ([4]; 125 g ai/ha): 40
Plant response rating, Blackgrass [4]: 40
Pigweed plant response rating [5, 19]: 60
Plant response rating, Pigweed [5, 16]: 80
Plant response rating, Pigweed [5, 20]: 80
Pigweed plant response rating [5, 18]: 90
Wheat plant response rating [6, 19]: 20
Plant response rating, Wheat [6, 16]: 20
Plant response rating, Wheat [6, 20]: 0
Wheat plant response rating [6, 18]: 50
Foxtail, Giant plant response rating [7, 19]: 10
Plant response rating, Foxtail, Giant [7, 16]: 40
Plant response rating, Foxtail, Giant [7, 20]: 0
Foxtail, Giant plant response rating [7, 18]: 40
Surinam Grass plant response rating [8, 19]: 0
Plant response rating, Surinam Grass [8, 16]: 0
Plant response rating, Surinam Grass [8, 20]: 0
Surinam Grass plant response rating [8, 18]: 40
Barnyardgrass plant response rating [9, 19]: 0
Plant response rating, Barnyardgrass [9, 16]: 20
Plant response rating, Barnyardgrass [9, 20]: 20
Barnyardgrass plant response rating [9, 18]: 50
Lambsquarters plant response rating [10, 19]: 60
Plant response rating, Lambsquarters [10, 16]: 70
Plant response rating, Lambsquarters [10, 20]: 90
Lambsquarters plant response rating [10, 18]: 100
Cocklebur plant response rating [11, 19]: 60
Plant response rating, Cocklebur [11, 16]: 80
Plant response rating, Cocklebur [11, 20]: 80
Cocklebur plant response rating [11, 18]: 90
Corn plant response rating (corn (Zea mays); [19]): 0
Plant response rating, Corn (corn (Zea mays); [16]): 0
Plant response rating, Corn (corn (Zea mays); [20]): 10
Corn plant response rating (corn (Zea mays); [18]): 30
Morningglory plant response rating [12, 19]: 40
Plant response rating, Morningglory [12, 16]: 70
Plant response rating, Morningglory [12, 20]: 0
Morningglory plant response rating [12, 18]: 90
Velvetleaf plant response rating [13, 19]: 40
Plant response rating, Velvetleaf [13, 16]: 50
Plant response rating, Velvetleaf [13, 20]: 70
Velvetleaf plant response rating [13, 18]: 80
Crabgrass plant response rating [14, 19]: 10
Plant response rating, Crabgrass [14, 16]: 20
Plant response rating, Crabgrass [14, 20]: 0
Crabgrass plant response rating [14, 18]: 50

CCOC(=O)C(Cl)(Cl)c1nc(C2CC2)nc(N)c1Br [Compound 34]
Plant response rating, Rice (rice (Oryza sativa)): 0
Plant response rating, Barnyardgrass [1]: 0
Plant response rating, Ducksalad [2]: 0
Plant response rating, Sedge, Umbrella [3]: 0
Oat, Wild plant response rating (wild oat (Avena fatua); 125 g ai/ha): 30
Plant response rating, Oat, Wild (wild oat (Avena fatua)): 40
Blackgrass plant response rating ([4]; 125 g ai/ha): 60
Plant response rating, Blackgrass [4]: 70
Pigweed plant response rating [5, 19]: 50
Plant response rating, Pigweed [5, 16]: 80
Plant response rating, Pigweed [5, 20]: 40
Pigweed plant response rating [5, 18]: 80
Wheat plant response rating [6, 19]: 30
Plant response rating, Wheat [6, 16]: 40
Plant response rating, Wheat [6, 20]: 0
Plant response rating, Wheat [6, 18]: 10
Foxtail, Giant plant response rating [7, 19]: 20
Plant response rating, Foxtail, Giant [7, 16]: 50
Plant response rating, Foxtail, Giant [7, 20]: 0
Foxtail, Giant plant response rating [7, 18]: 20
Surinam Grass plant response rating [8, 19]: 10
Plant response rating, Surinam Grass [8, 16]: 50
Plant response rating, Surinam Grass [8, 20]: 10
Surinam Grass plant response rating [8, 18]: 50
Barnyardgrass plant response rating [9, 19]: 0
Plant response rating, Barnyardgrass [9, 16]: 60
Plant response rating, Barnyardgrass [9, 20]: 0
Barnyardgrass plant response rating [9, 18]: 0
Lambsquarters plant response rating [10, 19]: 70
Plant response rating, Lambsquarters [10, 16]: 90
Plant response rating, Lambsquarters [10, 20]: 50
Lambsquarters plant response rating [10, 18]: 80
Cocklebur plant response rating [11, 19]: 80
Plant response rating, Cocklebur [11, 16]: 80
Plant response rating, Cocklebur [11, 20]: 30
Cocklebur plant response rating [11, 18]: 60
Corn plant response rating (corn (Zea mays); [19]): 0
Plant response rating, Corn (corn (Zea mays); [16]): 0
Plant response rating, Corn (corn (Zea mays); [20]): 0
Corn plant response rating (corn (Zea mays); [18]): 0
Morningglory plant response rating [12, 19]: 60
Plant response rating, Morningglory [12, 16]: 70
Plant response rating, Morningglory [12, 20]: 20
Morningglory plant response rating [12, 18]: 70
Velvetleaf plant response rating [13, 19]: 30
Plant response rating, Velvetleaf [13, 16]: 60
Plant response rating, Velvetleaf [13, 20]: 30
Velvetleaf plant response rating [13, 18]: 60
Crabgrass plant response rating [14, 19]: 0
Plant response rating, Crabgrass [14, 16]: 30
Plant response rating, Crabgrass [14, 20]: 0
Crabgrass plant response rating [14, 18]: 70
